# According to patent US20160122821A1, “GENETIC MARKERS OF ANTIPSYCHOTIC RESPONSE” (SUREGENE, LLC, priority 2013, published 2016):
# Assays:
# [1] = system: Caucasian patients with schizophrenia (CATIE); details: SNPs in NPAS3; Lavedan et al., 2009; cited from earlier work
# [2] = system: Caucasian patients with schizophrenia (CATIE); experiment: Genetic association (linear regression, additive model) of SNP alleles with MMRM-modelled change in PANSS Total Score under antipsychotic treatment, CATIE trial; assay type: in vivo, human; details: rs1315115, located in an intron of NPAS3
# Protocol: For the CATIE study, individual cases were diagnosed as having SZ based on DSM-III/IV criteria. Treatment response for all patients was assessed using the Positive and Negative Syndrome Scale (PANSS) (Kay et al., 1987; Kay et al., 1989; Leucht et al., 2005). […] To avoid possible bias in post hoc selection of a treatment response variable, the inventors used the mixed model repeated measures (MMRM) approach developed by van den Oord and coworkers (van den Oord et al., 2009). […] The design of the CATIE study, including details of consent for genetic analyses, has been described in detail by others (Lieberman et al., 2005; Stroup et al., 2003; Sullivan et al., 2008). Only retrospective genetic analyses, judged to be exempt from human studies requirements by an IRB, were conducted in the current study. Consented DNA samples were obtained from the Rutgers University Cell and DNA Repository in collaboration with […]. […] All of these patients self-reported as having exclusively European ancestry. […] Genotyping was performed on a fee for service basis according to Illumina's standard operating procedures. Raw intensity files were processed using Illumina® BeadStudio version 1.7.4 software. […] Only two of these had been previously genotyped in the CATIE sample. […] To allow comparison to previously published PGx findings for CATIE and to avoid possible bias in post-hoc selection of a treatment response variable, the inventors used the mixed model repeated measures (MMRM) approach developed by Van den Oord and coworkers (van den Oord et al., 2009; […] et al., 2011). Briefly, this method models random effects by introducing random slopes for treatment effects, allowing treatment effects to be different across subjects. The MMRM approach serves to increase the statistical power to detect genetic associations by increasing the precision in measuring change in PANSS Total Score (PANSS-T) by accounting for variance due to baseline PANSS-T, and treatment, as well as smoothing out the random fluctuations in PANSS-T between visits due to various uncontrolled variables. […] Bozeman, Mont.). Quantile-Quantile (QQ) plots were prepared using the R statistical package version 2.14.1. For comparison purposes, original CATIE-provided SNP genotypes in specific genes were evaluated using the same genetic analysis. Haplotype association integrating newly generated and original genotypes for specific regions was carried out in SVS using haplotype blocks predefined by Haploview software. […] For each of the SNPs listed the reference SNP (rs) number is provided, which provides the known sequence context for the given SNP (see, e.g., National Center for Biotechnology Information (NCBI) SNP database available on the world wide web at ncbi.nlm.nih.gov/snp).
Compound,association of SNPs with response [1],association of SNP with response [2]
COc1cc(C(C)=O)ccc1OCCCN1CCC(c2noc3cc(F)ccc23)CC1 [iloperidone],association of SNPs in NPAS3 with response,–
"Cc1nc2n(c(=O)c1CCN1CCC(c3noc4cc(F)ccc34)CC1)CCCC2 [Risperidone, risperidone]",–,associated with response
